Data on 25 compounds can be found in ChEMBL document CHEMBL5532635, “The role of natural anti-parasitic guided development of synthetic drugs for leishmaniasis” (Eur J Med Chem, 2023).

By IC50 is commonly meant the concentration that gives 50% inhibition. By EC50 is commonly meant the concentration needed to bring the measured effect to its halfway point.

Holding throughout (assay type): functional, organism-based
For test [1], the system named is Leishmania major. Briefly: Antileishmanial activity against Leishmania major amastigotes assessed as reduction in parasite growth incubated for 72 hrs by MTT assay. Background: Formazan colour is commonly taken as a measure of viable cells.
Test [2] deals with Leishmania major. Briefly: Antileishmanial activity against Leishmania major promastigotes assessed as reduction in parasite growth incubated for 72 hrs by MTT assay.
Test [3] concerns Leishmania amazonensis. Briefly: Antileishmanial activity against Leishmania amazonensis promastigotes infected in BALB/c mouse assessed as reduction of IgG1 level at 400 mg/kg per day, ip administered for 30 days measured at 10 week by ELISA assay.
The test system of test [4] is Leishmania donovani. Briefly: Antileishmanial activity against Leishmania donovani promastigotes assessed as inhibition of parasite growth measured after 24 hrs by Alamar blue based analysis. Background: The colour change of resazurin is a common sign of viable cells or microbes.
Test [5] has as its system Leishmania major. Briefly: Antileishmanial activity against Leishmania major promastigotes assessed as parasite growth inhibition incubated for 24 hrs by Alamar blue staining based assay.
Test [6] deals with Leishmania amazonensis. Briefly: Antileishmanial activity against Leishmania amazonensis amastigotes assessed as reduction in parasite growth.
Test [7] relates to Leishmania amazonensis. Briefly: Antileishmanial activity against Leishmania amazonensis promastigotes assessed as reduction in parasite viability after 72 hrs by CCK-8 assay.
Test [8] relates to Leishmania donovani. Briefly: Antileishmanial activity against Leishmania donovani promastigotes assessed as reduction in parasite growth.
The subject of test [9] is Leishmania amazonensis. Briefly: Antileishmanial activity against Leishmania amazonensis MHOM/BR/77/LTB001 assessed as parasite growth inhibition.
Test [10] has as its system Leishmania amazonensis. Briefly: Antileishmanial activity against Leishmania amazonensis IFLA/BR/1967/PH8 amastigotes infected in mouse peritoneal macrophage assessed as inhibition of parasite growth measured after 24 hrs by Giemsa staining based analysis. To be noted: IFLA/BR/1967/PH8, Peritoneal macrophage cell.
Test [11] has as its system Leishmania infantum. Briefly: Antileishmanial activity Leishmania infantum promastigotes assessed as reduction in parasite growth incubated for 72 hrs by alamar blue assay.
Test [12] has as its system Leishmania major. Briefly: Antileishmanial activity against Leishmania major promastigotes assessed as inhibition of parasite growth incubated for 48 hrs by resazurin dye based assay.
In test [13] the test system is Leishmania major. Briefly: Antileishmanial activity against Leishmania major IR-173 promastigotes assessed as inhibition of parasite growth incubated for 48 hrs by resazurin dye based assay. The following applies: IR-173, 48 h.
Test [14] relates to Leishmania tropica. Briefly: Antileishmanial activity against Leishmania tropica promastigotes incubated for 24 hrs measured by alamar blue staining based fluorescence analysis.
Test [15] deals with Leishmania tropica. Briefly: Antileishmanial activity against Leishmania tropica amastigotes incubated for 24 hrs measured by alamar blue staining based fluorescence analysis.
Test [16] deals with Leishmania infantum. Briefly: Antileishmanial activity against Leishmania infantum assessed as reduction in parasite growth.
Test [17] concerns Leishmania amazonensis. Briefly: Antileishmanial activity against Leishmania amazonensis promastigotes assessed as reduction in parasite growth measured after 24 hrs by MTT assay.
Test [18] relates to Leishmania amazonensis. Briefly: Antileishmanial activity against Leishmania amazonensis amastigotes assessed as reduction in parasite growth measured after 24 hrs by MTT assay.
Test [19] deals with Leishmania infantum. Briefly: Antileishmanial activity against Leishmania infantum MHOM/BR/70/BH46 promastigotes assessed as inhibition of parasite growth incubated for 72 hrs by Neubauer chamber based analysis. To be noted: MHOM/BR/70/BH46, 72 h.
In test [20] the test system is Leishmania infantum. Briefly: Antileishmanial activity against Leishmania infantum promastigotes assessed as reduction in parasite viability measured after 48 hrs by MTT assay.
For test [21], the system named is Leishmania mexicana. Briefly: Antileishmanial activity against Leishmania mexicana intracellular amastigotes infected in J774 macrophages assessed as reduction in parasite viability after 72 hrs by MTT based analysis. To be noted: J774, 72 h.

Converted amounts (≈) assume the structure as drawn. Some results are limits rather than exact numbers.

For the compound `COc1c2c(cc3c1-c1ccc(OC)c(=O)cc1[C@@H](NC(C)=O)CC3)OCO2`, the IC50 in test [1] was determined as 8.7 µg/mL (≈ 22.7 µM); in [2], 0.4 µg/mL (≈ 1.04 µM). `CC[C@H]1CN2CCc3c([nH]c4ccccc34)[C@@H]2C[C@@H]1/C(=C\OC)C(=O)OC`: in [3], the IC50 came to 1.65 µM. On the same count and under the same terms, the result for `C=C[C@H]1CN2CCc3c([nH]c4ccccc34)[C@@H]2C[C@@H]1/C(=C\OC)C(=O)OC` reads 1.12 µM. Regarding `C[C@@H]1CC[C@@]2(C)C(C(=O)O)=CCC[C@@H]2[C@@]1(C)CCc1ccoc1`, the IC50 in [4] and in [5] was 10 µM throughout.

`CO[C@@H]1C(=O)C[C@H]2O[C@]1(C)n1c3ccccc3c3c4c(c5c6ccccc6n2c5c31)C(=O)NC4`: the IC50 in [6] was 0.005 µM; in test [7] it was 0.037 µM; in test [8] it was greater than 0.089 µM. Consider `CN[C@@H]1C[C@H]2O[C@@](C)([C@@H]1OC)n1c3ccccc3c3c4c(c5c6ccccc6n2c5c31)C(=O)NC4=O`, for which the IC50 in test [9] came out at 0.007 µM; in test [6], 0.0002 µM; in test [8], 0.001 µM. Turning to `O=C(CC[Se]c1ccnc2cc(Cl)ccc12)Nc1ccc([N+](=O)[O-])cc1`, the half-maximal inhibitory concentration (IC50) in test [10] was found to be 10.8 µM. Regarding `C/C(=C\COc1cc(O)cc2oc(=O)ccc12)C/C=C/C(C)(C)OO`, the EC50 in test [11] is 20.2 µM.

Regarding `CCC[C@H]1CC(=O)Oc2c(C(=O)[C@H](C)[C@H](C)O)c(O)c3c(c21)OC(C)(C)C=C3`, the IC50 in [12] is 29.1 µg/mL (≈ 74.9 µM); in test [13] it was 36.5 µg/mL (≈ 94 µM). In the case of `Cc1ccccc1C(=O)N/N=C1\C(=O)N(CC(O)COc2cc(=O)oc3ccccc23)c2ccccc21` (stereo unspecified), the results for the IC50 in test [14] and in test [15] were 3.73 µM and 4.13 µM, respectively. Regarding `Cc1cc(O)c(C(=O)Nc2ccccc2)c(=O)n1Cc1ccc(Cl)cc1`, the IC50 in test [16] amounted to 55 µM.

As for `COc1ccc(C(O)C(C)Oc2ccc(C3OC(c4ccc(OC(C)C(O)c5ccc(OC)c(OC)c5)c(OC)c4)C(C)C3C)cc2OC)cc1OC` (stereo unspecified), the IC50 in test [17] was determined as 35.4 µg/mL (≈ 48.3 µM); in test [18] it was 20.4 µg/mL (≈ 27.8 µM).

For the compound `Cc1cc(O)c(C(=O)Nc2ccccc2)c(=O)n1Cc1ccc(F)cc1`, the IC50 in test [16] stood at 55 µM. With `CCCn1c(C)cc(O)c(C(=O)Nc2ccc(Br)cc2)c1=O`, the IC50 in [16] was found to be 55 µM. With `CCc1ccc(NC(=S)N/N=C\c2c[nH]c3c(C)cc(Br)cc23)cc1`, the IC50 in test [19] came to 4.36 µM. With `COc1c(O[C@@H]2O[C@H](CO)[C@@H](O)[C@H](O)[C@H]2O)cc2c(c1OC)-c1ccc(OC)c(=O)cc1[C@@H](NC(C)=O)CC2`, the figures for the IC50 in [1] and in [2] were 4 µg/mL (≈ 7.31 µM) and 0.2 µg/mL (≈ 0.365 µM), respectively. Turning to `Cc1cc(O)c(C(=O)Nc2ccc(Br)cc2)c(=O)n1C1CC1`, the IC50 in [16] is 55 µM. On the same count and under the same terms, the result for `Cc1cc(O)c(C(=O)Nc2ccccc2)c(=O)n1Cc1cccc(Cl)c1Cl` reads 55 µM. For `COC1=C(C)O[C@H]2C[C@@]1(OC)n1c3ccccc3c3c4c(c5c6ccccc6n2c5c31)C(=O)NC4`, the IC50 is 0.0224 µM in test [7] and greater than 0.089 µM in test [8]. With `CCOC(=O)c1cc2c([nH]c3ccccc32)c(-c2ccccn2)n1`, the EC50 in test [20] is 3.36 µM. Take `COc1ccc2nc(C(=O)NCCCN(C)C)ccc2c1`: the IC50 in test [10] is 5.67 µM. Consider `CCOC(=O)c1cc2c([nH]c3ccccc32)c(-c2cn(-c3ccccc3)nn2)n1`, for which the 50% effective concentration (EC50) in [20] is 13.6 µM. Consider `COc1cc2oc(=O)ccc2c(OC/C=C(\C)C/C=C/C(C)(C)OO)c1OC`, for which the EC50 in test [11] amounted to 26.2 µM. With `COc1cc(/C=C/C(=O)c2ccc([N+](=O)[O-])cc2)ccc1OCC=C(C)C`, in test [21], the IC50 turned out to be 8.22 µM.

As for `CCOC(=O)c1cc2c([nH]c3ccccc32)c(-c2cc3ccccc3n3nnnc23)n1`, the EC50 in [20] came out at 10.2 µM.
